System: Canines
Test: Canine ischemia/reperfusion (I/R) protocol, 3 hours no-flow LAD occlusion then reperfusion, MRI at week 8
Assay type: in vivo
Description: Canines (n=9) underwent left thoracotomy at the 4th intercostal space and a hydraulic occluder was secured around the left-anterior descending coronary artery after the first principal diagonal. Subsequently a Doppler flow probe was affixed distal to the hydraulic occluder and animals were allowed to recover for 7 days. Following recovery, animals were subjected to ischemia/reperfusion (I/R) protocol and studied with magnetic resonance imaging. The ischemia protocol consisted of inflicting no-flow ischemia by inflating the hydraulic occlude (confirmed by the Doppler flow velocity) for 3 hours. Subsequently all animals were reperfused by deflation of the hydraulic occluder.

[1] = 100% O2 versus room air during reperfusion, week 8

## O=O [100% O2, oxygen]
[1]
  chronic scar size larger versus animals breathing room air during reperfusion: approximately 25%
  left ventricular ejection fraction (LVEF) reduced versus animals breathing room air during reperfusion: 12%
Gas breathed during reperfusion, 3.0 T MRI, week 8 post I/R injury, left-ventricular ejection fraction
  LVEF at week 8 post MI: 39.7 +/− 4.9
Gas breathed during reperfusion, 3.0 T MRI, week 8 post I/R injury, scar volume as percentage of left ventricular volume
  Scar Volume at week 8 post MI (% LV): 15.0 +/− 3.8 % LV
